Reference: PubChem BioAssay AID1259407 (Chemical Carcinogenesis Research Information System (CCRIS), 2018)
The source made the active and inactive calls. The rule behind the calls is not given here.

Tested on: CCRIS mutagenicity, Ames/micronucleus/aberration tests
Assay: CCRIS mutagenicity studies
[1] = Test System: AMES SALMONELLA TYPHIMURIUM, Strain/Indicator: TA97, Metabolic Activation: NONE, Method: STANDARD PLATE
[2] = Test System: AMES SALMONELLA TYPHIMURIUM, Strain/Indicator: TA97, Metabolic Activation: RAT, LIVER, S-9, AROCLOR 1254, Method: STANDARD PLATE
[3] = Test System: AMES SALMONELLA TYPHIMURIUM, Strain/Indicator: TA98, Metabolic Activation: NONE, Method: STANDARD PLATE
[4] = Test System: AMES SALMONELLA TYPHIMURIUM, Strain/Indicator: TA98, Metabolic Activation: RAT, LIVER, S-9, AROCLOR 1254, Method: STANDARD PLATE
[5] = Test System: AMES SALMONELLA TYPHIMURIUM, Strain/Indicator: TA100, Metabolic Activation: NONE, Method: STANDARD PLATE
[6] = Test System: AMES SALMONELLA TYPHIMURIUM, Strain/Indicator: TA100, Metabolic Activation: RAT, LIVER, S-9, AROCLOR 1254, Method: STANDARD PLATE
[7] = Test System: AMES SALMONELLA TYPHIMURIUM, Strain/Indicator: TA98, Metabolic Activation: NONE, Method: PREINCUBATION
[8] = Test System: AMES SALMONELLA TYPHIMURIUM, Strain/Indicator: TA98, Metabolic Activation: RAT, LIVER, S-9, PCB, Method: PREINCUBATION
[9] = Test System: AMES SALMONELLA TYPHIMURIUM, Strain/Indicator: TA100, Metabolic Activation: NONE, Method: PREINCUBATION
[10] = Test System: AMES SALMONELLA TYPHIMURIUM, Strain/Indicator: TA100, Metabolic Activation: RAT, LIVER, S-9, PCB, Method: PREINCUBATION

## COc1c(Cl)ccc(Cl)c1C(=O)O
[1]
  mutagenic call: inactive; negative
[2]
  mutagenic call: inactive; negative
[3]
  mutagenic call: inactive; negative
[4]
  mutagenic call: inactive; negative
[5]
  mutagenic call: inactive; negative
[6]
  mutagenic call: inactive; negative
Test System: AMES SALMONELLA TYPHIMURIUM, Strain/Indicator: TA102, Metabolic Activation: NONE, Method: STANDARD PLATE
  mutagenic call: inactive; negative
Test System: AMES SALMONELLA TYPHIMURIUM, Strain/Indicator: TA102, Metabolic Activation: RAT, LIVER, S-9, AROCLOR 1254, Method: STANDARD PLATE
  mutagenic call: inactive; negative
Test System: UDS HUMAN LYMPHOCYTES, Strain/Indicator: THY INCORP (NON-S-PHASE), Metabolic Activation: NONE, Method: LIQUID SCINTILLATION COUNTING
  mutagenic call: inactive; negative
Test System: UDS HUMAN LYMPHOCYTES, Strain/Indicator: THY INCORP (NON-S-PHASE), Metabolic Activation: RAT, LIVER, S-9, Method: LIQUID SCINTILLATION COUNTING
  mutagenic call: active; positive

## COc1ccc2c(c1)c(CC(=O)O)c(C)n2C(=O)c1ccc(Cl)cc1
Test System: AMES SALMONELLA TYPHIMURIUM, Strain/Indicator: TA98, Metabolic Activation: GUINEA PIG, LIVER, S-9, PCB, Method: PREINCUBATION
  mutagenic call: inactive; negative
Test System: AMES SALMONELLA TYPHIMURIUM, Strain/Indicator: TA98, Metabolic Activation: HAMSTER, LIVER, S-9, PCB, Method: PREINCUBATION
  mutagenic call: inactive; negative
Test System: AMES SALMONELLA TYPHIMURIUM, Strain/Indicator: TA98, Metabolic Activation: MOUSE, LIVER, S-9, PCB, Method: PREINCUBATION
  mutagenic call: inactive; negative
[7]
  mutagenic call: inactive; negative
[8]
  mutagenic call: inactive; negative
Test System: AMES SALMONELLA TYPHIMURIUM, Strain/Indicator: TA98, Metabolic Activation: RAT, LIVER, S-9, PCB, Method: STANDARD PLATE
  mutagenic call: inactive; negative
Test System: AMES SALMONELLA TYPHIMURIUM, Strain/Indicator: TA100, Metabolic Activation: GUINEA PIG, LIVER, S-9, PCB, Method: PREINCUBATION
  mutagenic call: inactive; negative
Test System: AMES SALMONELLA TYPHIMURIUM, Strain/Indicator: TA100, Metabolic Activation: HAMSTER, LIVER, S-9, PCB, Method: PREINCUBATION
  mutagenic call: inactive; negative
Test System: AMES SALMONELLA TYPHIMURIUM, Strain/Indicator: TA100, Metabolic Activation: MOUSE, LIVER, S-9, PCB, Method: PREINCUBATION
  mutagenic call: inactive; negative
[9]
  mutagenic call: inactive; negative
[10]
  mutagenic call: active; positive
Test System: AMES SALMONELLA TYPHIMURIUM, Strain/Indicator: TA100, Metabolic Activation: RAT, LIVER, S-9, PCB, Method: STANDARD PLATE
  mutagenic call: inactive; negative
Test System: AMES SALMONELLA TYPHIMURIUM, Strain/Indicator: TA1537, Metabolic Activation: RAT, LIVER, S-9, PCB, Method: STANDARD PLATE
  mutagenic call: inactive; negative
Test System: AMES SALMONELLA TYPHIMURIUM, Strain/Indicator: TA1538, Metabolic Activation: RAT, LIVER, S-9, PCB, Method: STANDARD PLATE
  mutagenic call: inactive; negative
Test System: E. COLI, Strain/Indicator: WP2 UVRA, Metabolic Activation: RAT, LIVER, S-9, PCB, Method: STANDARD PLATE
  mutagenic call: inactive; negative

## NC(=O)N(CCF)N=O
Test System: E. COLI B, Strain/Indicator: H/R30R, Metabolic Activation: NONE
  mutagenic call: active; positive
Test System: E. COLI B, Strain/Indicator: HS30R, Metabolic Activation: NONE
  mutagenic call: active; positive

## COc1ccc2cc1Oc1ccc(cc1)C[C@H]1c3cc(c(OC)cc3CCN1C)Oc1c(OC)c(OC)cc3c1[C@H](C2)N(C)CC3
[3]
  mutagenic call: inactive; negative
[4]
  mutagenic call: active; positive
[5]
  mutagenic call: inactive; negative
[6]
  mutagenic call: inactive; negative

## c1cc2cnncc2cn1
[7]
  mutagenic call: inactive; negative
[8]
  mutagenic call: inactive; negative
[9]
  mutagenic call: inactive; negative
[10]
  mutagenic call: inactive; negative

## O=C(O)CC[C@H](NC(=O)COc1cc(Cl)c(Cl)cc1Cl)C(=O)O
[1]
  mutagenic call: inactive; negative
[2]
  mutagenic call: inactive; negative
[3]
  mutagenic call: inactive; negative
[4]
  mutagenic call: inactive; negative
[5]
  mutagenic call: inactive; negative
[6]
  mutagenic call: inactive; negative
Test System: AMES SALMONELLA TYPHIMURIUM, Strain/Indicator: TA1535, Metabolic Activation: NONE, Method: STANDARD PLATE
  mutagenic call: inactive; negative
Test System: AMES SALMONELLA TYPHIMURIUM, Strain/Indicator: TA1535, Metabolic Activation: RAT, LIVER, S-9, AROCLOR 1254, Method: STANDARD PLATE
  mutagenic call: inactive; negative
Test System: AMES SALMONELLA TYPHIMURIUM, Strain/Indicator: TA1538, Metabolic Activation: NONE, Method: STANDARD PLATE
  mutagenic call: inactive; negative
Test System: AMES SALMONELLA TYPHIMURIUM, Strain/Indicator: TA1538, Metabolic Activation: RAT, LIVER, S-9, AROCLOR 1254, Method: STANDARD PLATE
  mutagenic call: inactive; negative
